Results published in patent publication US20230365619A1, “CRYSTALLINE SODIUM CHOLESTERYL SULFATE” (Durect Corporation, priority 2020, published 2023).

Assay: Dynamic Vapor Sorption/Desorption (DVS)
Format: physicochemical
Settings: FIG. 4

CC(C)CCC[C@@H](C)[C@H]1CC[C@H]2[C@@H]3CC=C4C[C@@H](OS(=O)(=O)[O-])CC[C@]4(C)[C@H]3CC[C@]12C.[Na+] [Form F, sodium cholesteryl sulfate]
weight change upon desorption (DVS) (desorption 95% to 5% relative humidity): 20.8% | weight gain on sorption (DVS) (ramping from 5% to 95% relative humidity, 10% RH increments, nitrogen purge): 23.8% | DVS sorption profile (onset of weight gain) (ramping from 5% to 95% relative humidity): little weight gain until 55% relative humidity
